“And” between values parts separate entries of the source, which are not always exact repeats. Equal values may be shown once.
Tests used:
Type in all cases: in vivo, human
[1] = system: patients with glaucomatous neuropathy; test: Clinical treatment of glaucomatous neuropathy: visual acuity, automated perimetry, ocular tension; details: for Mean drop MD: normal −2..2; for Corr. Loss variance CLV: normal 0..4; for Loss variance LV: normal 0..6; for visual acuity after treatment: most spectacular case
Description: (§1) The invention will now be illustrated by the following description of clinical examples which, of course, are not limiting in nature. In these examples the active principle, in particular ramipril, was administered continuously in an oral form, in an amount of 1.25 mg per day.
FIGS. 1 and 2 reproduce the fields of vision of the left eye; FIGS. 3 and 4 reproduce the field of vision of the right eye as perceived by one of the treated patients who suffered from glaucomatous neuropathy, respectively before treatment (FIGS. 1 and 3) and after treatment, 10 days later (FIGS. 2 and 4).
(§2) The grey scale provides an “image” of visual function, point by point, of different regions of the retina; the palest zones correspond to regions in which the visual functions are the least altered; the darkest zones correspond to those that have altered the most. […] A reduction in the darkest regions also indicates local visual recovery in regions that have become lighter.
(§3) The values that appear in the right hand portions of the figures correspond to the threshold values measured locally at set points in the retina. […] In contrast, the values that appear in the lower right hand portions of the figures correspond to local loss of vision in the zones concerned of the retina compared with the normal.
(§4) The Bebie curves also provide comparative images of the visual capacity of the subject under examination (lower curves) compared with the curves for normal or quasi-normal subjects (upper curves).

[2] = system: severely myopic patients with degenerative chorioretinopathy; test: Clinical treatment of degenerative chorio-retinopathy in severe myopia: corrected visual acuity
Description: as §1
By way of example, visual acuity changed respectively: from simple light perception (LP) to 1/20 for the monophtalmic eye; from 2/10 (RE) 1/10 (LE) to 5/10 (RE) and 5/10 (LE); from 1.5/10 to 3/10; from 1/20 (both eyes) to 2/10 (RE) and 1/10 (LE); from 1/10 (RE) and 1/10 (LE) to 6/10 (RE) and 3/10 (LE). Clearly, the term RE used here means “right eye” and the term LE used here means “left eye”.

[3] = system: patients with age-related macular degeneration; test: Clinical treatment of age-related macular degeneration (ARMD): visual acuity
Description: as §1
By way of example, visual acuity changed respectively from 0.16 to 0.3; 0.2 to 0.5; from 0.05 to 0.2 (right eye) and 0.05 to 0.15 (left eye); from 0.2 to 0.4 (right eye) and from 0.5 to 0.8 (left eye); from 0.6 to 1; from 0.4 to 0.6 (right eye) and from 0.2 to 0.5 (left eye).

[4] = system: patients with retinitis pigmentosa; test: Clinical treatment of retinitis pigmentosa: visual acuity, automated perimetry, electroretinogram; details: for visual acuity after treatment: 1.25 mg orally, two months; for Mean drop MD: normal −2..2; for Corr. Loss variance CLV: normal 0..4; for Loss variance LV: normal 0..6; for Mean sensitivity MS: sectorial retinitis pigmentosa
Description: as §1
FIGS. 5 and 6 reproduce the fields of vision of the left eye; FIGS. 7 and 8 reproduce the field of vision of the right eye as perceived by one of the treated patients who suffered from sectorial retinitis pigmentosa, respectively before treatment (FIGS. 5 and 7) and after treatment, two months later (FIGS. 6 and 8).
as §2, §3, §4
Three patients were treated with 1.25 mg of ramipril orally and their visual acuity improved in the space of two months: […]

[5] = system: patient with Stargardt's disease, fundus flavimaculatus; test: Clinical treatment of Stargardt's flavimaculatus disease: visual acuity; details: for visual acuity after treatment: one patient
Description: as §1
(§5) Ramipril was used in the following three disorders: retinitis pigmentosa; Stargardt's disease, fundus flavimaculatus; adult pseudo-vitelliform dystrophy.
One patient was treated; acuity improved from 1/20 to 1/10 in the right eye and from 1/50 to 3/10 in the left eye.

[6] = system: patient with pseudovitelliform dystrophy; test: Clinical treatment of adult pseudo-vitelliform dystrophy: visual acuity; details: for visual acuity after treatment: one patient, one month
Description: as §1, §5
One patient was tested. Acuity improved in one month from 1.6 to 2/10 in the right eye and from 2/10 to 3/10 in the left eye. The activity of the ramipril in these hereditary dystrophies is unique.

[7] = system: patients with retinal venous occlusion; test: Clinical treatment of retinal venous occlusions; details: for visual acuity after treatment: oedematous and ischemic type venous branch occlusion, two months
Description: as §1

[8] = system: patients with central serous chorioretinopathy; test: Clinical treatment of retinal epitheliopathy and central serous chorioretinopathy (CSCR); details: in a few days to a few weeks
Description: as §1

## CCOC(=O)[C@H](CCc1ccccc1)N[C@@H](C)C(=O)N1[C@H](C(=O)O)C[C@@H]2CCC[C@@H]21 [ramipril]
[1]; automated perimetry
  scotomas: absolute scotomas became relative
[1]; automated perimetry, on average
  reduction of loss in mean sensitivity: 30%
[1]; irregular amount
  ocular tension: Significant reduction
[1]; left eye after treatment (10 days), Mean, before 9.9
  Mean drop MD: 6.2 dB
[1]; left eye after treatment (10 days), Mean, before 22.4
  Corr. Loss variance CLV: 13.1 dB^2
[1]; left eye after treatment (10 days), Mean, before treatment 16.5
  Mean sensitivity MS: 20.2
[1]; left eye after treatment (10 days), Phase 1, before 9.5
  Mean drop MD: 5.7 dB
[1]; left eye after treatment (10 days), Phase 1, before 26.8
  Loss variance LV: 16.8 dB
[1]; left eye after treatment (10 days), Phase 1, before treatment 16.9
  Mean sensitivity MS: 20.0
[1]; left eye after treatment (10 days), Phase 2, before 9.4
  Mean drop MD: 6.8 dB
[1]; left eye after treatment (10 days), Phase 2, before 29.3
  Loss variance LV: 26.5 dB
[1]; left eye after treatment (10 days), Phase 2, before treatment 17.3
  Mean sensitivity MS: 20.0
[1]; LE, before 3/10
  visual acuity after treatment: 10/10
[1]; RE, before 6/10
  visual acuity after treatment: 8/10
[1]; right eye after treatment (10 days), Mean, before 9.5
  Mean drop MD: 4.8 dB
[1]; right eye after treatment (10 days), Mean, before 21.8
  Corr. Loss variance CLV: 13.1 dB^2
[1]; right eye after treatment (10 days), Mean, before treatment 16.9
  Mean sensitivity MS: 21.6
[1]; right eye after treatment (10 days), Phase 1, before 9.0
  Mean drop MD: 4.1 dB
[1]; right eye after treatment (10 days), Phase 1, before 28.6
  Loss variance LV: 17.2 dB
[1]; right eye after treatment (10 days), Phase 1, before treatment 17.4
  Mean sensitivity MS: 22.2
[1]; right eye after treatment (10 days), Phase 2, before 9.3
  Mean drop MD: 4.7 dB
[1]; right eye after treatment (10 days), Phase 2, before 21.0
  Loss variance LV: 10.4 dB
[1]; right eye after treatment (10 days), Phase 2, before treatment 17.4
  Mean sensitivity MS: 21.9
[2]; case 1, monophtalmic eye, before simple light perception (LP)
  visual acuity after treatment: 1/20
[2]; case 2, LE, before 1/10
  visual acuity after treatment: 5/10
[2]; case 2, RE, before 2/10
  visual acuity after treatment: 5/10
[2]; case 3, before 1.5/10
  visual acuity after treatment: 3/10
[2]; case 4, LE, before 1/20
  visual acuity after treatment: 1/10
[2]; case 4, RE, before 1/20
  visual acuity after treatment: 2/10
[2]; case 5, LE, before 1/10
  visual acuity after treatment: 3/10
[2]; case 5, RE, before 1/10
  visual acuity after treatment: 6/10
[2]; even in a low dose, always, despite extremely severe myopic choroidosis
  corrected visual acuity: improvement in corrected visual acuity
[3]; case 1, before 0.16
  visual acuity after treatment: 0.3
[3]; case 2, before 0.2
  visual acuity after treatment: 0.5
[3]; case 3, left eye, before 0.05
  visual acuity after treatment: 0.15
[3]; case 3, right eye, before 0.05
  visual acuity after treatment: 0.2
[3]; case 4, left eye, before 0.5
  visual acuity after treatment: 0.8
[3]; case 4, right eye, before 0.2
  visual acuity after treatment: 0.4
[3]; case 5, before 0.6
  visual acuity after treatment: 1
[3]; case 6, left eye, before 0.2
  visual acuity after treatment: 0.5
[3]; case 6, right eye, before 0.4
  visual acuity after treatment: 0.6
[3]; majority of patients, with or without sub-retinal neovessels
  visual acuity: improved visual acuity
[4]; first patient, right eye, before doubtful light perception
  visual acuity after treatment: 1/50
[4]; retinitis pigmentosa, all cases
  visual function: improvement in visual function
[4]; second patient, monophthalmic, before 2/10
  visual acuity after treatment: 5/10
[4]; third patient (sectorial), left eye, before 1.6
  visual acuity after treatment: 4/10
[4]; third patient (sectorial), right eye, before 1.6
  visual acuity after treatment: 6/10
[4]; third patient, left eye after two months, Mean, before 10.3
  Mean drop MD: 6.5 dB
[4]; third patient, left eye after two months, Mean, before 52.5
  Corr. Loss variance CLV: 48.0 dB^2
[4]; third patient, left eye after two months, Phase 1, before 9.8
  Mean drop MD: 6.2 dB
[4]; third patient, left eye after two months, Phase 1, before 60.6
  Loss variance LV: 51.8 dB
[4]; third patient, left eye after two months, Phase 2, before 9.6
  Mean drop MD: 7.0 dB
[4]; third patient, left eye after two months, Phase 2, before 52.8
  Loss variance LV: 63.9 dB
[4]; third patient, right eye after two months, Mean, before 10.6
  Mean drop MD: 8.8 dB
[4]; third patient, right eye after two months, Mean, before 66.0
  Corr. Loss variance CLV: 65.6 dB^2
[4]; third patient, right eye after two months, Phase 1, before 10.2
  Mean drop MD: 8.7 dB
[4]; third patient, right eye after two months, Phase 1, before 70.4
  Loss variance LV: 67.5 dB
[4]; third patient, right eye after two months, Phase 2, before 11.5
  Mean drop MD: 9.2 dB
[4]; third patient, right eye after two months, Phase 2, before 86.9
  Loss variance LV: 79.8 dB
[4]; third patient, left eye after two months, Mean, before 16.8
  Mean sensitivity MS: 19.9 and 20.9
[4]; third patient, left eye after two months, Phase 1, before 17.3
  Mean sensitivity MS: 21.2
[4]; third patient, left eye after two months, Phase 2, before 17.9
  Mean sensitivity MS: 20.8
[4]; third patient, right eye after two months, Mean, before 16.5
  Mean sensitivity MS: 18 and 18.3
[4]; third patient, right eye after two months, Phase 1, before 16.8
  Mean sensitivity MS: 18.4
[4]; third patient, right eye after two months, Phase 2, before 16.0
  Mean sensitivity MS: 18.2
[4]; third patient, especially in the red and in the left eye
  electroretinogram: substantially improved
[5]; Stargardt's disease, fundus flavimaculatus, all cases
  visual function: improvement in visual function
[5]; left eye, before 1/50
  visual acuity after treatment: 3/10
[5]; right eye, before 1/20
  visual acuity after treatment: 1/10
[6]; adult pseudo-vitelliform dystrophy, all cases
  visual function: improvement in visual function
[6]; left eye, before 2/10
  visual acuity after treatment: 3/10
[6]; right eye, before 1.6
  visual acuity after treatment: 2/10
[7]; first patient, before 2/10
  visual acuity after treatment: 8/10
[7]; majority of patients treated
  functional and angiographic outcome: improved both on the functional and on the angiographic level
[7]; second patient, before 6/10
  visual acuity after treatment: 10/10
[8]
  blister (retinal serous detachment): reduction in the blister
  visual acuity and central field of vision: improvement in visual acuity and in the central field of vision
